By Kd is commonly meant the equilibrium constant for the complex coming apart.

Consider 8 compounds from US20050019836A1, “Bioanalytical reagent, method for production thereof, sensor platforms and detection methods based on use of said bioanalytical reagent” (priority 2000, published 2005).

Assay [1] addresses T1, 5HT3A receptor (Mus musculus, UniProt P23979).
T1 construct: Transient expression of the full wild-type receptor was achieved by co-transfection; expressed in transfected cells; host or cells: HEK293
T1 sequence (P23979 24-489): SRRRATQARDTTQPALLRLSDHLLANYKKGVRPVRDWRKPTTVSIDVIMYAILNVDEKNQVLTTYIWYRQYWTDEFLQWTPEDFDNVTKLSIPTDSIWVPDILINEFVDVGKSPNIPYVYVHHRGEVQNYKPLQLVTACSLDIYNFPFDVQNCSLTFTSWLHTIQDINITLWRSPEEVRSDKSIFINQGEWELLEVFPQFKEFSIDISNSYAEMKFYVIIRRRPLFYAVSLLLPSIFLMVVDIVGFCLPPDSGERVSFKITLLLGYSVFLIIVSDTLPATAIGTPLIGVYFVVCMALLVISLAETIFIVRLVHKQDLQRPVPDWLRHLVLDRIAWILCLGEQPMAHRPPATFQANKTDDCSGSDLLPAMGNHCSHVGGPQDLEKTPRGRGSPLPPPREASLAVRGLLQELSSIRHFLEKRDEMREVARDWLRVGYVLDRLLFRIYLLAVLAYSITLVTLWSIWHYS
As to the kind of experiment: fluorescent ligand binding to surface-immobilized "native" vesicles (confocal fluorescence microscopy). As to conditions: individual discrete immobilized vesicles (n=3) from HEK293 cells; fit with Langmuir isotherm; read-out: dissociation constant Kd. As to the method: The ligand-binding experiments in surface-immobilized vesicles were carried out using the fluorescence-labeled ligand GR-Cy5. For these experiments, a homologous serotonin receptor construct 5HT3A was used that was expressed with an EGFP (Enhanced Green Fluorescent Protein, Clontech) fused at the end of a subunit. The prepared “native” vesicles were immobilized on cover glasses by means of physical adsorption of the vesicles to the glasses, by two-hour or overnight incubation of typically 400 μl of a vesicle preparation solution prepared according to the above method in 6-well plates with cover glasses on the bottom at 4° C. […]
The affinity of the fluorescent ligand for receptors bound to individual, discrete vesicles was determined by sequential addition of ascending concentrations of the fluorescent ligand to one and the same cover glass with vesicles immobilized thereon by overnight incubation. […]
The fluorescence intensities of the ligand were measured with a confocal fluorescence microscope (Zeiss, Laser Scanning Microscope LSM510), using a suitable filter set. The fluorescence signal of the GFP additionally incorporated into the vesicles was used in each case to adjust the microscope to the working distance of the plane in which the vesicles lay before the ligand was added. […]

In assay [2] the target is T1, 5HT3A receptor. Description: competitive radiological binding assay with [3H]-GR65630, receptor in "native" vesicles in solution. On the procedure: To this end, samples of said reagent were incubated with the vesicles in solution for 60 minutes at room temperature with 1.5 nM of the tritium-labeled ligand [^3H]-GR65630 in 240 μl HEPES buffer (10 mM HEPES, pH 7.4) (HEPES: 4-(2-hydroxyethyl)piperazine-1-ethanesulfonic acid) in 96-well MultiScreen plates (Millipore, F-Molsheim). The incubation was completed by rapid filtration followed by washing 3 times with 300 μl of ice-cold HEPES buffer each time. The filters were transferred to scintillation vessels and each taken up in 1 ml of Ultima Gold TM (Packard, meridan, USA). The radioactivity was measured using a TriCarb 2200CA liquid scintillation counter. The extent of nonspecific binding to the receptor and to the vesicles was estimated in the presence of a high surplus of quipazine (1 μM). The dissociation constant Kd was determined from Scatchard plots in 6 different concentrations of the ligand [^3H]-GR65630. […] All experiments were carried out in duplicate.

The target in assay [3] is T1, 5HT3A receptor. As to the kind of experiment: competitive radiological binding assay with [3H]-GR65630, receptor in whole mother cells.
Another assay has as its target T2, 5HT3A serotonin receptor (Mus musculus, UniProt P23979).
T2 construct: expressed in transfected cells; host or cells: HEK cells
T2 sequence (P23979 24-489): T1 sequence (P23979 24-489)
Description: agonist-induced calcium signal (Fluo-3) in "native" vesicles with incorporated 5HT3A receptor. The format is cell-based. As to conditions: 350 μM agonist; Fluo-3 loaded vesicles. On the procedure: In this case, the original HEK cells from which the vesicles were obtained following the addition of cytochalasin according to the method described hereinabove were loaded with the acetoxymethyl ester of Fluo-3 as calcium indicator (generally 20 μg Fluo-3 in 500 μl DMEM/F12 medium). The prepared vesicles contained said fluorescent calcium indicator and parts of the endoplasmic reticulum in addition to the 5HT3A receptor.
Fluorescence excitation of the Fluo-3 was performed at 488 nm. The emission was measured at 500-530 nm. The vesicles loaded with Fluo-3 were then stimulated with 350 μM m-chlorophenylbiguanide hydrochloride (mCPG), a receptor-specific agonist. Stimulation was performed by addition of the agonist to the vesicle medium (t=0 sec). The maximum fluorescence signal that occurred through binding of the calcium to the calcium indicator Fluo-3 was already measured less than one minute after addition of the agonist. The value amounted to 35 μM free calcium ions in the vesicle interior, i.e. in the cytosol surrounded by the vesicle. With the aid of calcium indicator Fluo-3, free calcium ions are detected only in the cytosol (vesicle lumen) transferred from the cell of origin. Calcium ions in the endoplasmic reticulum or in other cell organelles or parts of cell organelles possibly included in the vesicle are not determined by this detection method.
The increase in the fluorescence signal up to its maximum value after less than one minute and the subsequent decrease in the fluorescence signal to its baseline value after a further 2 minutes, i.e. after a total of 3 minutes following addition of the agonist, is a sign of the intact functional capacity of the complete mechanism of the signal transduction cascade within the vesicle, i.e. of the ability of the vesicle to “buffer” the concentration of free calcium ions. This includes the action of sodium-calcium exchangers, in addition to the timespan until closure of the receptor's ion channel and desensitization mechanisms characteristic of serotonin.

The mark [4] stands for this setting: vesicles from HEK293 cells in solution, competition with 1.5 nM [3H]-GR65630, 60 min, room temperature, read-out: pKi, receptor in "native" vesicles (converted).
[5] abbreviates: HEK293 mother cells, competition with 1.5 nM [3H]-GR65630, 60 min, room temperature, read-out: pKi, receptor in mother cell (converted).
Setting [6] is: vesicles from HEK293 cells in solution, competition with 1.5 nM [3H]-GR65630, 60 min, room temperature.
The mark [7] stands for this setting: HEK293 mother cells, competition with 1.5 nM [3H]-GR65630, 60 min, room temperature.

As to “1,2,3,9-tetrahydro-3-[(5-methyl-1H-imidazol-4-yl)methyl]-9-(3-amino-(N-rhodamineB-thiocarbamoyl)-propyl)-4H-carbazol-4-one [GR-Rho]”, on 5HT3A receptor [1], the Kd came out at 4.2 nM.

Consider `Cc1[nH]cnc1CC1CCc2c(c3ccccc3n2CCCN)C1=O` (stereo not shown) [GR-H], for which the results for the Ki at 5HT3A receptor [2] and on 5HT3A receptor [3] were 0.2 nM and 0.0631 nM, respectively.

Take `Cc1nccn1CC1CCc2c(c3ccccc3n2C)C1=O` (stereo not shown) [Ondansetron, 1,2,3,9-tetrahydro-9-methyl-3-[(2-methyl-1H-imidazol-1-yl)methyl]-4H-carbazol-4-one]: the Ki is 2.51 nM at 5HT3A receptor [2] and 3.16 nM on 5HT3A receptor [3].

Regarding `N=C(N)NC(=N)Nc1ccccc1` [PBG, Phenylbiguanide], the Ki on 5HT3A receptor [2] (setting [4]) is 251 nM; on 5HT3A receptor [3] (setting [5]), 316 nM.

As to `c1ccc2nc(N3CCNCC3)ccc2c1` [Quipazine, 2-(1-Piperazinyl)quinoline], the values for the Ki on 5HT3A receptor [2] (setting [4]) and on 5HT3A receptor [3] (setting [5]) were 0.398 nM and 0.501 nM, respectively.

`Cc1[nH]cnc1CCC(=O)c1cn(C)c2ccccc12` [[^3H]-GR65630]: on 5HT3A receptor [2] (setting [6]), the “pKi, receptor in "native" vesicles” value worked out at 9.4 ± 0.1. For the same compound, at 5HT3A receptor [3] (setting [7]), the “pKi, receptor in mother cell” value came to 9.0 ± 0.1.

For `N=C(N)NC(=N)Nc1cccc(Cl)c1` [mCPBG, m-Chlorophenylbiguanide], on 5HT3A receptor [2] (setting [6]), the “pKi, receptor in "native" vesicles” value came out at 8.3 ± 0.1. Besides, the “pKi, receptor in mother cell” value at 5HT3A receptor [3] (setting [7]) amounted to 8.2 ± 0.1.

On to `Cl.N=C(N)NC(=N)Nc1cccc(Cl)c1` [mCPG, m-chlorophenylbiguanide hydrochloride], for which, on 5HT3A serotonin receptor, the “free calcium ions in the vesicle interior at maximum fluorescence signal” value worked out at 35 µM, the “time to maximum fluorescence signal after addition of the agonist” value is recorded as “less than one” and the “total time until decrease of fluorescence signal to baseline value after addition of the agonist” value was 3 min.
